Reference: patent US8541588B2, “Sulfonamide derivatives” (Pfizer Limited, priority 2009, dated 2013)

Target: T1, Nav1.7 (or SCN9A) channel; HEK cells stably transfected with hSCN9A (Homo sapiens, UniProt Q15858)
T1 construct: expressed in transfected cells
Test: Nav1.7 block, PatchXpress 7000 automated whole-cell voltage clamp, estimated IC50 (EIC50)
Format: cell-based
Conditions: estimated IC50; hSCN9A HEK cells, PatchXpress platform; Examples 815-1040

T1 sequence (Q15858 whole entry): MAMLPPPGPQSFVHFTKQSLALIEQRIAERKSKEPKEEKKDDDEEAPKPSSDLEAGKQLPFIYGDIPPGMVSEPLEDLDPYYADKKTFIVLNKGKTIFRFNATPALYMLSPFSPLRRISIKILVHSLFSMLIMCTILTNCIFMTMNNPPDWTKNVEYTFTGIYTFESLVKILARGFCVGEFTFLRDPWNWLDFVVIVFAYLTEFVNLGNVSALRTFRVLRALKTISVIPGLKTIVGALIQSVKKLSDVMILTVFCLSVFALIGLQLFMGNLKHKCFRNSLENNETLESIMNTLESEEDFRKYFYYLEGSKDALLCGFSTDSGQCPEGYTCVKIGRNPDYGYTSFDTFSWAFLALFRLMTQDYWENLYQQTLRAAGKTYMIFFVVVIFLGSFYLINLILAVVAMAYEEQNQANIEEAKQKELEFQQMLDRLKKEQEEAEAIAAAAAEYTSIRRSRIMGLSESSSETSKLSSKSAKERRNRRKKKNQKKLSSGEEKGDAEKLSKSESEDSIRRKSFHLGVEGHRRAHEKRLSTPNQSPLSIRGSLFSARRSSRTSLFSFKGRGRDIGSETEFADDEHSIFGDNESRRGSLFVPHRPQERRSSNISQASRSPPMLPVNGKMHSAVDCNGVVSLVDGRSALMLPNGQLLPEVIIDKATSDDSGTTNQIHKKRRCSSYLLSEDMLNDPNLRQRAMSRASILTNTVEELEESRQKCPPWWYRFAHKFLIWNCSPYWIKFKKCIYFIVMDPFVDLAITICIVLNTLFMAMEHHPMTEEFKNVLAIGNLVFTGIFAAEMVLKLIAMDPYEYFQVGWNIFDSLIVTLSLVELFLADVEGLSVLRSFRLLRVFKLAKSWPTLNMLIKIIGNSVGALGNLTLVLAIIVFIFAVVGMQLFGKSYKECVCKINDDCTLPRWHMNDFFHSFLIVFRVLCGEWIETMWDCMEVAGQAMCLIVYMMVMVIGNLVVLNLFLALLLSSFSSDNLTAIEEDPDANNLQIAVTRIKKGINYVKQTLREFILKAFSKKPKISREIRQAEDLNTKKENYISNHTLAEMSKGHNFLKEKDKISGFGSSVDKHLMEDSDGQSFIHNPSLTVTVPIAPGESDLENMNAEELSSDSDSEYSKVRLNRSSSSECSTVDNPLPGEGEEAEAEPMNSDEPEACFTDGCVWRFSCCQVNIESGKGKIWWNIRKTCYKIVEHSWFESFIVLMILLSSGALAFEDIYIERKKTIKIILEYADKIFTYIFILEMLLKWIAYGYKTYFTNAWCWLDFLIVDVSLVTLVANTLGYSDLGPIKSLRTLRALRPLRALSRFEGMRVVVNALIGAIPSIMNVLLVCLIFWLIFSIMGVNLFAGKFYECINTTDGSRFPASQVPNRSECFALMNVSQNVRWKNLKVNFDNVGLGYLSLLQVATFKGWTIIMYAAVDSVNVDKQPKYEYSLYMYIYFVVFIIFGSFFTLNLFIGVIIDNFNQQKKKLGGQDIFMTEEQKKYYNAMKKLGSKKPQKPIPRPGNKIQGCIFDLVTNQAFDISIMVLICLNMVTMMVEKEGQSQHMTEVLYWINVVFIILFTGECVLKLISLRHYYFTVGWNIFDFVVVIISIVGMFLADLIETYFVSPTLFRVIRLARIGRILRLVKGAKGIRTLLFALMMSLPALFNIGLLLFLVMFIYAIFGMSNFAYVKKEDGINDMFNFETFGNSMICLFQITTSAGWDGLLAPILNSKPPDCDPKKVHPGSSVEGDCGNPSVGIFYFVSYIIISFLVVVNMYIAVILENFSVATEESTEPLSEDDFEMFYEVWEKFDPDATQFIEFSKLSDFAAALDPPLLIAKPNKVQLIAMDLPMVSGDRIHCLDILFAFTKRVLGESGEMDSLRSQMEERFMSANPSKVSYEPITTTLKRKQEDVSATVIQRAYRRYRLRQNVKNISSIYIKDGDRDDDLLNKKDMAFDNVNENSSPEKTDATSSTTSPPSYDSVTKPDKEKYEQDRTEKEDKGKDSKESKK

Row | IC50 [nM] | SMILES
1 | 7.9 | Cc1nocc1-c1cc(Cl)ccc1Oc1ccc(S(=O)(=O)Nc2ncns2)cc1C#N [Example 961, 4-[4-chloro-2-(3-methylisoxazol-4-yl)phenoxy]-3-cyano-N-1,2,4-thiadiazol-5-ylbenzenesulfonamide]
2 | 9.9 | N#Cc1cc(S(=O)(=O)Nc2cscn2)ccc1Oc1ccc(OC(F)(F)F)cc1-c1ccnn1C1CNC1 [Example 962, 4-[2-(1-azetidin-3-yl-1H-pyrazol-5-yl)-4-(trifluoromethoxy)phenoxy]-3-cyano-N-1,3-thiazol-4-ylbenzenesulfonamide]
3 | 15 | O=S(=O)(Nc1nncs1)c1cc(Cl)c(Oc2cc(F)c(OC(F)(F)F)cc2-c2ccnnc2)cc1F [Example 963, 5-chloro-2-fluoro-4-[5-fluoro-2-pyridazin-4-yl-4-(trifluoromethoxy)phenoxy]-N-1,3,4-thiadiazol-2-ylbenzenesulfonamide]
4 | 21 | N#Cc1cc(S(=O)(=O)Nc2ncns2)ccc1Oc1cc(OC(F)(F)F)c(F)cc1-c1ccnnc1 [Example 964, 3-cyano-4-[4-fluoro-2-pyridazin-4-yl-5-(trifluoromethoxy)phenoxy]-N-1,2,4-thiadiazol-5-ylbenzenesulfonamide]
5 | 25 | O=S(=O)(Nc1nncs1)c1cc(Cl)c(Oc2cc(OC(F)(F)F)c(F)cc2-c2ccnnc2)cc1F [Example 965, 5-chloro-2-fluoro-4-[4-fluoro-2-pyridazin-4-yl-5-(trifluoromethoxy)phenoxy]-N-1,3,4-thiadiazol-2-ylbenzenesulfonamide]
6 | 40 | O=S(=O)(Nc1nncs1)c1cc(Cl)c(Oc2cc(OC(F)(F)F)ccc2-c2ccnnc2)cc1F [Example 966, 5-chloro-2-fluoro-4-[2-pyridazin-4-yl-5-(trifluoromethoxy)phenoxy]-N-1,3,4-thiadiazol-2-ylbenzenesulfonamide]
7 | 27 | N#Cc1cc(S(=O)(=O)Nc2ncns2)ccc1Oc1ccc(Cl)cc1-c1cnco1 [Example 967, 4-[4-chloro-2-(1,3-oxazol-5-yl)phenoxy]-3-cyano-N-1,2,4-thiadiazol-5-ylbenzenesulfonamide]
8 | 2000 | CN1CC(n2nccc2-c2cc(Cl)ccc2Oc2ncc(S(=O)(=O)Nc3ncns3)cc2Cl)C1 [Example 968, 5-chloro-6-{4-chloro-2-[1-(1-methylazetidin-3-yl)-1H-pyrazol-5-yl]phenoxy}-N-1,2,4-thiadiazol-5-ylpyridine-3-sulfonamide]
9 | 4.1 | N#Cc1cc(S(=O)(=O)Nc2cscn2)ccc1Oc1ccc(C(F)(F)F)cc1-c1ccnn1C1CNC1 [Example 969, 4-[2-(1-azetidin-3-yl-1H-pyrazol-5-yl)-4-(trifluoromethyl)phenoxy]-3-cyano-N-1,3-thiazol-4-ylbenzenesulfonamide]
10 | 17 | O=S(=O)(Nc1ncns1)c1cc(F)c(Oc2ccc(Cl)cc2-c2cnco2)cc1F [Example 970, 4-[4-chloro-2-(1,3-oxazol-5-yl)phenoxy]-2,5-difluoro-N-1,2,4-thiadiazol-5-ylbenzenesulfonamide]
11 | 8.5 | N#Cc1cc(S(=O)(=O)Nc2ncns2)ccc1Oc1cc(Cl)c(Cl)cc1-c1ccnnc1 [Example 971, 3-cyano-4-(4,5-dichloro-2-pyridazin-4-ylphenoxy)-N-1,2,4-thiadiazol-5-ylbenzenesulfonamide]
12 | 25 | Nc1cc(-c2cc(F)ccc2Oc2cc(F)c(S(=O)(=O)Nc3ccncn3)cc2Cl)ccn1 [Example 972, 4-[2-(2-aminopyridin-4-yl)-4-fluorophenoxy]-5-chloro-2-fluoro-N-pyrimidin-4-ylbenzenesulfonamide]
13 | 25 | Nc1n[nH]cc1-c1cc(Cl)ccc1Oc1ccc(S(=O)(=O)Nc2ccncn2)cc1Cl [Example 973, 4-[2-(3-amino-1H-pyrazol-4-yl)-4-chlorophenoxy]-3-chloro-N-pyrimidin-4-ylbenzenesulfonamide]
14 | 74 | O=S(=O)(Nc1ncns1)c1cnc(Oc2ccc(C(F)(F)F)cc2-c2ccnnc2)c(Cl)c1 [Example 974, 5-chloro-6-[2-pyridazin-4-yl-4-(trifluoromethyl)phenoxy]-N-1,2,4-thiadiazol-5-ylpyridine-3-sulfonamide]
